Read-outs that look alike come from different tables or passages of the source.
Legend:
HBV = HBV inhibitory activity: HBV DNA in the culture medium of HepG2.2.15 cells by q-PCR; format: cell-based; settings: Hepatitis B virus, HepG2.2.15, 144 h
Procedure, shortened: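 Supernatant HBV DNA quantified by q-PCR after a 6-day compound exposure, with one mid-course medium change, of HepG2.2.15 cells (stably integrated HBV; 40,000 per well, 2% FBS). Eight-point 3-fold series topped at 10 μM for antiviral EC50; separate plates of 5,000 cells per well with 100 μM top give CC50.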

[1] = Cytotoxicity determination in HepG2.2.15 cells (CCK-8); format: cell-based; settings: human, 6 days of compound treatment, CCK-8, highest concentration 100 μM
Procedure, shortened: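 CC50 is from CCK-8 absorbance (450 nm, 630 nm reference) after 2.5 h with reagent. Before that, compounds were applied for six days, top concentration 100 μM, eight threefold dilutions, one mid-course medium change, to stably HBV-integrated HepG2.2.15 cells plated at 5,000/well in 2% FBS.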

[2] = HepG2.2.15 cells, 6 days of compound treatment, HBV DNA in culture medium by q-PCR, highest concentration 10 μM, read-out: EC50

| SMILES | EC50 (HBV; [2]) [µM] | CC50 at 6 days [1] [µM] | EC50 (HBV) [µM] |
| --- | --- | --- | --- |
| COC(=O)C1=C([C@H]2CC[C@H](S(=O)(=O)NCCC(C)(C)O)CC2)NC(c2nccs2)=NC1c1ccc(F)c(F)c1Cl (stereo partly drawn) [Compound 358B, (trans)-Methyl 4-(2-chloro-3,4-difluorophenyl)-6-(4-(N-(3-hydroxy-3-methylbutyl)sulfamoyl)cyclohexyl)-2-(thiazol-2-yl)-1,4-dihydropyrimidine-5-carboxylate] | 0.059 | 12.5 |  |
| COC(=O)C1=C(C2CCN(S(=O)(=O)c3cnn(C[C@@H](C)O)c3)CC2)NC(c2nccs2)=NC1c1ccc(F)cc1Cl (stereo partly drawn) [Compound 360C, methyl 4-(2-chloro-4-fluorophenyl)-6-(1-((1-((R)-2-hydroxypropyl)-1H-pyrazol-4-yl)sulfonyl)piperidin-4-yl)-2-(thiazol-2-yl)-1,4-dihydropyrimidine-5-carboxylate] |  | 17 | 0.017 |
| COC(=O)C1=C(C2CCN(S(=O)(=O)c3cnn(C[C@H](C)O)c3)CC2)NC(c2nccs2)=NC1c1ccc(F)cc1Cl (stereo partly drawn) [Compound 360D, methyl 4-(2-chloro-4-fluorophenyl)-6-(1-((1-((S)-2-hydroxypropyl)-1H-pyrazol-4-yl)sulfonyl)piperidin-4-yl)-2-(thiazol-2-yl)-1,4-dihydropyrimidine-5-carboxylate] | 0.105 | 20.4 |  |
| COC(=O)C1=C([C@@H]2CCN(S(=O)(=O)CC(F)(F)F)C2)NC(c2nccs2)=NC1c1ccc(F)cc1Cl (stereo partly drawn) [Compound 364, Methyl 4-(2-chloro-4-fluorophenyl)-2-(thiazol-2-yl)-6-((R)-1-((2,2,2-trifluoroethyl)sulfonyl)pyrrolidin-3-yl)-1,4-dihydropyrimidine-5-carboxylate] | 0.208 | > 100 |  |
| COC(=O)C1=C(C23CC(NS(=O)(=O)CCO)(C2)C3)NC(c2nccs2)=NC1c1ccc(F)cc1Cl (centres unmarked) [Compound 390B, Methyl 4-(2-chloro-4-fluorophenyl)-6-(3-(2-hydroxyethylsulfonamido)bicyclo[1.1.1]pentan-1-yl)-2-(thiazol-2-yl)-1,4-dihydropyrimidine-5-carboxylate] | 0.054 | 45.3 |  |
| COC(=O)C1=C(C23CC(NC(C)=O)(C2)C3)NC(c2nccs2)=NC1c1ccc(F)cc1Cl (centres unmarked) [Compound 391B, Methyl 6-(3-acetamidobicyclo[1.1.1]pentan-1-yl)-4-(2-chloro-4-fluorophenyl)-2-(thiazol-2-yl)-1,4-dihydropyrimidine-5-carboxylate] | 0.068 | 46.8 |  |
| COC(=O)C1=C(C23CC(NS(=O)(=O)CC(O)CO)(C2)C3)NC(c2nccs2)=NC1c1ccc(F)cc1Cl (centres unmarked) [Compound 393B, Methyl 4-(2-chloro-4-fluorophenyl)-6-(3-(2,3-dihydroxypropylsulfonamido)bicyclo[1.1.1]pentan-1-yl)-2-(thiazol-2-yl)-1,4-dihydropyrimidine-5-carboxylate] | 0.1 | 85 |  |
| COC(=O)C1=C(C2CCN(S(C)(=N)=O)CC2)NC(c2nccs2)=NC1c1ccc(F)cc1Cl (centres unmarked) [Compound 401B, Methyl 4-(2-chloro-4-fluorophenyl)-6-(1-(S-methylsulfonimidoyl)piperidin-4-yl)-2-(thiazol-2-yl)-1,4-dihydropyrimidine-5-carboxylate] | 0.029 | 56.2 |  |
| COC(=O)C1=C(C23CC(NS(=O)(=O)C4CNC4)(C2)C3)NC(c2nccs2)=NC1c1ccc(F)c(F)c1Cl (centres unmarked) [Compound 406, Methyl 6-(3-(azetidine-3-sulfonamido)bicyclo[1.1.1]pentan-1-yl)-4-(2-chloro-3,4-difluorophenyl)-2-(thiazol-2-yl)-1,4-dihydropyrimidine-5-carboxylate] | 0.6 | 5.6 |  |
| CCOC(=O)C1=C(C2CCN(S(=O)(=O)C3CC(C)(C(=O)O)C3)CC2)NC(c2nccs2)=NC1c1ccc(F)cc1C (stereo not drawn) [Compound 420A, (trans)-3-((4-(5-(Ethoxycarbonyl)-6-(4-fluoro-2-methylphenyl)-2-(thiazol-2-yl)-3,6-dihydropyrimidin-4-yl)piperidin-1-yl)sulfonyl)-1-methylcyclobutanecarboxylic Acid] | 0.076 | 20.8 |  |
| COC(=O)C1=C(C2CCN(S(=O)(=O)C[C@H]3CC[C@H](C(=O)O)CC3)CC2)NC(c2nccs2)=NC1c1ccc(F)cc1Cl (stereo partly drawn) [Compound 422, trans-4-(((4-(6-(2-chloro-4-fluorophenyl)-5-(methoxycarbonyl)-2-(thiazol-2-yl)-3,6-dihydropyrimidin-4-yl)piperidinyl)sulfonyl)methyl)cyclohexane-1-carboxylic Acid] | 0.027 | 26.9 |  |
| CCOC(=O)C1=C(C2CCN(S(=O)(=O)C[C@H]3CC[C@H](C(=O)O)CC3)CC2)NC(c2nccs2)=NC1c1ccc(F)c(F)c1Cl (stereo partly drawn) [Compound 424, trans-4-(((4-(6-(2-chloro-3,4-difluorophenyl)-5-(ethoxycarbonyl)-2-(thiazol-2-yl)-3,6-dihydropyrimidin-4-yl)piperidinyl)sulfonyl)methyl)cyclohexane-1-carboxylic Acid] | 0.007 | 8.2 |  |
| COC(=O)C1=C(C2CCN(S(=O)(=O)C[C@H]3CC[C@H](C(=O)O)CC3)CC2)NC(c2nccs2)=NC1c1ccc(F)c(F)c1Cl (stereo partly drawn) [Compound 425, trans-4-(((4-(6-(2-chloro-3,4-difluorophenyl)-5-(methoxycarbonyl)-2-(thiazol-2-yl)-3,6-dihydropyrimidin-4-yl)piperidinyl)sulfonyl)methyl)cyclohexane-1-carboxylic Acid] | 0.006 | 13.3 |  |
| COC(=O)C1=C(C2CCC(S(=O)(=O)N3CCC3)CC2)NC(c2nccs2)=NC1c1ccc(F)c(F)c1Cl (centres unmarked) [Compound 430, methyl 6-(4-(azetidin-1-ylsulfonyl)cyclohexyl)-4-(2-chloro-3,4-difluorophenyl)-2-(thiazol-2-yl)-1,4-dihydropyrimidine-5-carboxylate] | 0.015 | 15.1 |  |
| COCCOCCOCCS(=O)(=O)NC12CC(C3=C(C(=O)OC)C(c4ccc(F)cc4Cl)N=C(c4nccs4)N3)(C1)C2 (centres unmarked) [Compound 440b, Methyl 4-(2-chloro-4-fluorophenyl)-6-(3-(2-(2-(2-methoxyethoxy)ethoxy)ethylsulfonamido)bicyclo[1.1.1]pentan-1-yl)-2-(thiazol-2-yl)-1,4-dihydropyrimidine-5-carboxylate] | 0.013 | 82.9 |  |
| COC(=O)C1=C(C2CCN(S(=O)(=O)C[C@H]3CC[C@H](C(=O)O)CC3)CC2)NC(c2nccs2)=NC1c1cccc(F)c1C (stereo partly drawn) [Compound 444b, (trans)-4-(((4-(6-(3-Fluoro-2-methylphenyl)-5-(methoxycarbonyl)-2-(thiazol-2-yl)-3,6-dihydropyrimidin-4-yl)piperidin-1-yl)sulfonyl)methyl)cyclohexanecarboxylic Acid] | 0.059 | 8.3 |  |
| COC(=O)C1=C(C2CCN(S(=O)(=O)C[C@H]3CC[C@H](C(=O)O)CC3)CC2)NC(c2nccs2)=NC1c1cccc(F)c1Cl (stereo partly drawn) [Compound 454, (trans)-4-(((4-(6-(2-Chloro-3-fluorophenyl)-5-(methoxycarbonyl)-2-(thiazol-2-yl)-3,6-dihydropyrimidin-4-yl)piperidin-1-yl)sulfonyl)methyl)-cyclohexanecarboxylic Acid] | 0.037 | 12 |  |
| COC(=O)C1=C(C2CCN(S(=O)(=O)CC34CC(C(=O)O)(C3)C4)CC2)NC(c2nccs2)=NC1c1ccc(F)c(F)c1Cl (centres unmarked) [Compound 456, 3-(((4-(6-(2-Chloro-3,4-difluorophenyl)-5-(methoxycarbonyl)-2-(thiazol-2-yl)-3,6-dihydropyrimidin-4-yl)piperidin-1-yl)sulfonyl)methyl)bicyclo[1.1.1]pentane-1-carboxylic Acid] | 0.043 | 19.5 |  |
| COC(=O)C1=C(C2CCN(S(=O)(=O)CCC(N)=O)CC2)NC(c2nccs2)=NC1c1ccc(F)cc1Cl (centres unmarked) [Compound 457, Methyl 6-(1-((3-amino-3-oxopropyl)sulfonyl)piperidin-4-yl)-4-(2-chloro-4-fluorophenyl)-2-(thiazol-2-yl)-1,4-dihydropyrimidine-5-carboxylate] | 0.054 | 63.4 |  |
| COC(=O)C1=C(C2CCN(S(=O)(=O)c3cnn(CCC(C)(C)O)c3)CC2)NC(c2nccs2)=NC1c1ccc(F)cc1Cl (centres unmarked) [Compound 458, Methyl 4-(2-chloro-4-fluorophenyl)-6-(1-((1-(3-hydroxy-3-methylbutyl)-1H-pyrazol-4-yl)sulfonyl)piperidin-4-yl)-2-(thiazol-2-yl)-1,4-dihydropyrimidine-5-carboxylate] | < 0.0046 | 15.5 |  |
| COCCOCCOCCS(=O)(=O)N1CCC(C2=C(C(=O)OC)C(c3ccc(F)cc3Cl)N=C(c3nccs3)N2)CC1 (centres unmarked) [Compound 459, Methyl 4-(2-chloro-4-fluorophenyl)-6-(1-((2-(2-(2-methoxyethoxy)ethoxy)ethyl)sulfonyl)piperidin-4-yl)-2-(thiazol-2-yl)-1,4-dihydropyrimidine-5-carboxylate] | 0.041 | 93.5 |  |
| COCCOCCOCCOCCS(=O)(=O)N1CCC(C2=C(C(=O)OC)C(c3ccc(F)cc3Cl)N=C(c3nccs3)N2)CC1 (centres unmarked) [Compound 460, Methyl 6-(1-(2,5,8,11-tetraoxatridecan-13-ylsulfonyl)piperidin-4-yl)-4-(2-chloro-4-fluorophenyl)-2-(thiazol-2-yl)-1,4-dihydropyrimidine-5-carboxylate] | 0.008 | 19.9 |  |

Source: patent US11639350B2, “Heteroaryldihydropyrimidine derivatives and methods of treating hepatitis B infections” (Janssen Pharmaceutica NV, priority 2018, dated 2023)
